In patent publication US6942966B1, “Methods for processing chemical compounds having reactive functional groups” (ISIS Pharmaceuticals, Inc., priority 1995, dated 2005):

Molecular target: T1, human type II PLA2 (Homo sapiens, UniProt P14555)
T1 construct: made in house; host or cells: baculovirus system
T1 sequence (P14555 21-144): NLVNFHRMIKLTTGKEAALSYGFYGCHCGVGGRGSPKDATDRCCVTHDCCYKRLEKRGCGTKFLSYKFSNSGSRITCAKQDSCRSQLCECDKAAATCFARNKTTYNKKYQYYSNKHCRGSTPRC
Test: E. coli PLA2 assay (3H-oleic acid labeled E. coli as substrate)
Assay type: biochemical
Details: compounds 33 and 34 assayed as a mixture at 100 μM, 50 μM, and 10 μM (final concentration)
Source text: After each round of synthesis as described in the above examples, the resulting pools of compounds are screened for inhibition of human type II PLA2 enzymatic activity. The assay is effected at the conclusion of each round of synthesis to identify the wining pool from that round of synthesis. Concurrently, the libraries additionally can be screened in other in vitro assays to determine further mechanisms of inhibition.
The pools of the macrocyclic libraries are screened for inhibition of PLA2 in the assay using E. coli labeled with ^3H-oleic acid (Franson et al., J. Lipid Res. 1974, 15, 380; and Davidson et al., J. Biol. Chem. 1987, 262, 1698) as the substrate. Type II PLA2 (originally isolated from synovial fluid), expressed in a baculovirus system and partially purified, serves as a source of the enzyme. […] 165 μl of each supernate is then put into a scintillation vial containing 6 ml of scintillant (Scintiverse) and cpms are measured in a Beckman Liquid Scintillation Counter. […]
The compounds were assayed as a mixture at 100 μM, 50 μM, and 10 μM (final concentration). […] Duplicate assay values were averaged, background (no compound, no PLA2) was subtracted and the percentage of the positive control (no compound) was calculated.

1,11,18,28-tetracarboxy-2,10,19,27-tetraaza-7,22-bis-(tosyl)aza-3,26-dioxa-[11.11]pyridinophane [compound 33]
inhibitory activity in E. coli PLA2 assay: showed inhibitory activity

1,11,18,28-tetracarboxy-2,10,19,27-tetraaza-7,24-bis-(tosyl)aza-3,20-dioxa-[11.11]pyridinophane [compound 34]
inhibitory activity in E. coli PLA2 assay: showed inhibitory activity
